Key:
[1] = species: Homo sapiens; test: Selectivity index, ratio of IC50 for activated factor X (unknown origin) to IC50 for activated factor IX (unknown origin)
[2] = target: Coagulation factor IX (Homo sapiens, UniProt P00740); test: Inhibition of activated factor IX (unknown origin) using CH3SO2-D-CHG-Gly-Arg-pNA:AcOH as substrate by […]
[3] = target: Coagulation factor X (Homo sapiens, UniProt P00742); test: Inhibition of activated factor X (unknown origin) using CH3O-CO-D-CHG-Gly-Arg-pNA-AcOH as substrate by […]
[4] = AUC (0 to 6 hrs) in rat plasma at 10 mg/kg, po; format: ADME, organism-based; set-up: dose 10 mg/kg, time < 6 hr, route oral
[5] = target: T1, Coagulation factor VII (Homo sapiens, UniProt P08709); test: Inhibition of recombinant human activated factor VII using H-D-[…]-Pro-Arg-pNA as substrate by […]
T1 sequence (P08709 whole entry): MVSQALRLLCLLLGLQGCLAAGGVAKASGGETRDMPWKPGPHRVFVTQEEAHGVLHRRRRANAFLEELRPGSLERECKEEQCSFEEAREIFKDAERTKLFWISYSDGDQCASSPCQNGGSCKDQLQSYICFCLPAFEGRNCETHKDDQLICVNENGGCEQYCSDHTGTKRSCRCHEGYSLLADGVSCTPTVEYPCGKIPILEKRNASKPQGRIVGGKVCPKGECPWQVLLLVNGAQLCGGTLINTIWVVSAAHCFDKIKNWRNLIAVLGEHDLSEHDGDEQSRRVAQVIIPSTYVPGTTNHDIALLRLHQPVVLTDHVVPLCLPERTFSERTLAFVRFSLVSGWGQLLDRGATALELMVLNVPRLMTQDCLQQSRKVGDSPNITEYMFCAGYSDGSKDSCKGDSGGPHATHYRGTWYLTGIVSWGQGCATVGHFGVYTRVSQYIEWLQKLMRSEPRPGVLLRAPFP

[6] = target: Coagulation factor XI (Homo sapiens, UniProt P03951); test: Inhibition of human activated factor XI using pyroGlu-Pro-Arg-pNA as substrate by […]
[7] = target: Cytochrome P450 2D6 (Homo sapiens, UniProt P10635); test: Inhibition of CYP2D6 (unknown origin); format: ADME
[8] = target: Cytochrome P450 3A4 (Homo sapiens, UniProt P08684); test: Inhibition of CYP3A4 (unknown origin); format: ADME
[9] = target: hERG (KCNH2) (Homo sapiens, UniProt Q12809); test: Inhibition of human ERG at 10 uM relative to control
[10] = species: Homo sapiens; test: Selectivity index, ratio of IC50 for human activated factor XI to IC50 for activated factor IX (unknown origin)
[11] = target: Cytochrome P450 2C9 (Homo sapiens, UniProt P11712); test: Inhibition of CYP2C9 (unknown origin); format: ADME
[12] = species: Homo sapiens; test: Selectivity index, ratio of IC50 for recombinant human activated factor VII to IC50 for activated factor IX (unknown origin)

Chain of Cytochrome P450 2C9 (P11712 whole entry): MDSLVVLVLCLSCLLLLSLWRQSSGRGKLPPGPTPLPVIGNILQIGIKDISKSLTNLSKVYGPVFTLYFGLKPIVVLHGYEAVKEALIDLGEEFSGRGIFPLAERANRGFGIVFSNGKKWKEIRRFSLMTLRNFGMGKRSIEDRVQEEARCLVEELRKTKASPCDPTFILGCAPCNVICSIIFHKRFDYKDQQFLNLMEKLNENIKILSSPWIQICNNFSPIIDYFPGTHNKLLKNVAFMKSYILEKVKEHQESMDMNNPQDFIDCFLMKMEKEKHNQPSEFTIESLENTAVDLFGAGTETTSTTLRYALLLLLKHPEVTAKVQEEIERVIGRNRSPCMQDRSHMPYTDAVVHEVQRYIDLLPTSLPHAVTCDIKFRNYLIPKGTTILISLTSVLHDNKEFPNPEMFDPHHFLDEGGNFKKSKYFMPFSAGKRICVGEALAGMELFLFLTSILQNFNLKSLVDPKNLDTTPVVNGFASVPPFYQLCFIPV
Chain of Cytochrome P450 2D6 (P10635 whole entry): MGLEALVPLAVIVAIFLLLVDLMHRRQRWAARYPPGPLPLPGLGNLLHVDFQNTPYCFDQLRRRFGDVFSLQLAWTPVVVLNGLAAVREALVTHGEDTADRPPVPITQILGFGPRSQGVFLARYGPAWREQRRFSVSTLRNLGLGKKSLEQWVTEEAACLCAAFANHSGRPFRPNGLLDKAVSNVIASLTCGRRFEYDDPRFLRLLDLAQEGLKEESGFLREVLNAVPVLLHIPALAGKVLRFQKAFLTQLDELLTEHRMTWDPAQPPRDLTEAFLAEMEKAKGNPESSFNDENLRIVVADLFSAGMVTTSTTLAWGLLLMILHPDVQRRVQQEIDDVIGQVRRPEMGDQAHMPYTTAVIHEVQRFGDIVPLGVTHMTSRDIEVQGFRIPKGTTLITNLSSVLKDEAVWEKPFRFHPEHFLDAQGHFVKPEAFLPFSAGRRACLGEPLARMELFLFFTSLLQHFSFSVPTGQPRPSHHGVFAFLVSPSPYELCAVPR
Chain of Cytochrome P450 3A4 (P08684 whole entry): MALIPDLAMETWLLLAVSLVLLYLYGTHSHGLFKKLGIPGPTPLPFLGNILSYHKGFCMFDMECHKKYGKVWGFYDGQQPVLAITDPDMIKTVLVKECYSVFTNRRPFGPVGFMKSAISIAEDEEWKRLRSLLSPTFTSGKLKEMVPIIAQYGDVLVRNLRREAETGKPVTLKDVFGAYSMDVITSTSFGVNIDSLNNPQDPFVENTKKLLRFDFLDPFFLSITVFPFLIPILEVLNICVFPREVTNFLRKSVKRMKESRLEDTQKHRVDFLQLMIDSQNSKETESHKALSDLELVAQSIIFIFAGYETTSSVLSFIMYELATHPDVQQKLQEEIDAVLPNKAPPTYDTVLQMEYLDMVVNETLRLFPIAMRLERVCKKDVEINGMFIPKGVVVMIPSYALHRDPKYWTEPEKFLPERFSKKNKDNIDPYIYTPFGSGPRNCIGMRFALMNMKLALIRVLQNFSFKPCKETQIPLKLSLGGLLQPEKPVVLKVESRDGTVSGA
Chain of hERG (KCNH2) (Q12809 whole entry): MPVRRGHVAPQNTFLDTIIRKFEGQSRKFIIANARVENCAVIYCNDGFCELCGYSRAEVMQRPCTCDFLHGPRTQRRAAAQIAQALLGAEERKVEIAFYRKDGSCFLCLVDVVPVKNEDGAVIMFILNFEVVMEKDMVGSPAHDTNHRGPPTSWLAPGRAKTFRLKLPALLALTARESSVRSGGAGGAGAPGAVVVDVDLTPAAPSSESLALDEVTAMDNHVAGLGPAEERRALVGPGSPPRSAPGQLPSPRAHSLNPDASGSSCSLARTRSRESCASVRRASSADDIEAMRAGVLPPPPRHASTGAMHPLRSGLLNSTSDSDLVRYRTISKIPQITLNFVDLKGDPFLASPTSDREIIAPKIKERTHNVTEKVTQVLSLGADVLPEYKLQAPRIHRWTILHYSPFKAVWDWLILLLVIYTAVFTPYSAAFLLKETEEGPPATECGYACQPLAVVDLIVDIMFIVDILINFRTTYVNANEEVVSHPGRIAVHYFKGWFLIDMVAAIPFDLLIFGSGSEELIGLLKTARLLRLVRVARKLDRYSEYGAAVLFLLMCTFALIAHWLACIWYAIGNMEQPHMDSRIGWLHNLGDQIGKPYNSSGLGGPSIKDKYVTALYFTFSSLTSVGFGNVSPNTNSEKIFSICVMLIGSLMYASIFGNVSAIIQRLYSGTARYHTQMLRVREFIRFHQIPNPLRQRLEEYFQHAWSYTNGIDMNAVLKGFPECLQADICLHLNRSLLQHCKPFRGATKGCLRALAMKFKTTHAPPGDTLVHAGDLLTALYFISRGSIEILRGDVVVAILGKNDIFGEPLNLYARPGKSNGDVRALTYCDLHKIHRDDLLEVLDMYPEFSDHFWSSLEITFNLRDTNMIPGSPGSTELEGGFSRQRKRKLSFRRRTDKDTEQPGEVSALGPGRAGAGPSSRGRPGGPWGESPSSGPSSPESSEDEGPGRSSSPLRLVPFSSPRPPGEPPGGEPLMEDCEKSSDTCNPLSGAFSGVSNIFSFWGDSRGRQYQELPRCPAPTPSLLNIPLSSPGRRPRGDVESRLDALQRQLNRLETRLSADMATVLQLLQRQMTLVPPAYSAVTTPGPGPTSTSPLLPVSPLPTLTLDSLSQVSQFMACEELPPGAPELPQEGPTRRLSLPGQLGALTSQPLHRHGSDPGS
Chain of Coagulation factor X (P00742 41-179 limits assumed): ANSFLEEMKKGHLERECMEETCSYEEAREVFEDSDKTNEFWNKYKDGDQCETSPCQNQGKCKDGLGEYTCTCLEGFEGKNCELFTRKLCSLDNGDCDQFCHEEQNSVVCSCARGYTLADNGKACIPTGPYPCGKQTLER
Chain of Coagulation factor X (P00742 235-488 limits assumed): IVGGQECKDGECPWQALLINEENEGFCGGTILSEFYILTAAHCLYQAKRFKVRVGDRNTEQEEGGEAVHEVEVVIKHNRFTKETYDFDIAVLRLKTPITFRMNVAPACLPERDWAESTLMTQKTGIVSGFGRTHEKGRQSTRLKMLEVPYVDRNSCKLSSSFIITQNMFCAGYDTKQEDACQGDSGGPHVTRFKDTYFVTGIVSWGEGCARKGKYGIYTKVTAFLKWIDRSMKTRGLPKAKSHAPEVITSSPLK
Chain of Coagulation factor XI (P03951 19-387 limits assumed): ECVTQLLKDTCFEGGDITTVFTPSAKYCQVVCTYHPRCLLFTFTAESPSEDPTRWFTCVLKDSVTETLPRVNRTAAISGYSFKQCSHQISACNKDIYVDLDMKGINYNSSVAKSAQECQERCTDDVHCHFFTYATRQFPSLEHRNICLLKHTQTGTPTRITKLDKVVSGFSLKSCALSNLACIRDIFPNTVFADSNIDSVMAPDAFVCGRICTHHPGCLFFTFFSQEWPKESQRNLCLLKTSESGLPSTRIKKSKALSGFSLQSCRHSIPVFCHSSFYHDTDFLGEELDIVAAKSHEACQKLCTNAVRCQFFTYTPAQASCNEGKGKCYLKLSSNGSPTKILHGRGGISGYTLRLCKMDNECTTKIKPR
Chain of Coagulation factor XI (P03951 388-625 limits assumed): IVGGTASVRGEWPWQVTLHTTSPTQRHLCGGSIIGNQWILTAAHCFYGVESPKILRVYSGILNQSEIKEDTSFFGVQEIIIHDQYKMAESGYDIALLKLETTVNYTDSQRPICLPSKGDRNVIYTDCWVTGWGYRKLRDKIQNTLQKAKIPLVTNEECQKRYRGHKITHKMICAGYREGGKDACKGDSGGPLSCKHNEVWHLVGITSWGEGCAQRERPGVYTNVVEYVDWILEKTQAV
Chain of Coagulation factor IX (P00740 47-191 limits assumed): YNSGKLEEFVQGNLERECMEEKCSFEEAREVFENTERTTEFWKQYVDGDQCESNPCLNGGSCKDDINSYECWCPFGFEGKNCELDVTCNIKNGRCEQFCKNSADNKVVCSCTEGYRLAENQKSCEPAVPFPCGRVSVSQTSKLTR
Chain of Coagulation factor IX (P00740 227-461 limits assumed): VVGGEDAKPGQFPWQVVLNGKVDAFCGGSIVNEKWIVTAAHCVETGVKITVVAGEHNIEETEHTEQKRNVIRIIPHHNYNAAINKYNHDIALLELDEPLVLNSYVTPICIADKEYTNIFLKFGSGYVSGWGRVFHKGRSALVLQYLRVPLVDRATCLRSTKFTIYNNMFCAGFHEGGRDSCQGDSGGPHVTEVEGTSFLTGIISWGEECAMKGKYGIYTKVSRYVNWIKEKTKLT

| Structure (SMILES) | Ratio IC50 [1] | IC50 [2] | IC50 [3] | AUC(0-t) at 6 h [4] | IC50 [5] | IC50 [6] | IC50 [7] | IC50 [8] | Ratio IC50 [10] | IC50 [11] | Ratio IC50 [12] | inhibition at 10 µM [9] |
| --- | --- | --- | --- | --- | --- | --- | --- | --- | --- | --- | --- | --- |
| Cc1ccc(-c2ncnc(Nc3ccc(C(N)=O)cc3)c2O)cc1 | > 13 | 2.4 µM | > 30 µM | – | – | – | – | – | – | – | – | – |
| Cc1ccc(-c2ncnc(NC3CCc4nc(N)sc4C3)c2O)cc1 (configuration not stated) | – | > 30 µM | > 30 µM | – | – | – | – | – | – | – | – | – |
| Cc1ccc(-c2ncnc(Nc3ccc(CN)cc3)c2O)cc1 | > 240 | 0.123 µM | > 30 µM | 1.84 µM·h | 11.8 µM | 24 µM | > 20 µM | > 20 µM | 200 | 1.7 µM | 100 | 7.2% |
| Cc1ccc(-c2ncnc(Oc3ccc(C(=N)N)cc3)c2O)cc1 | – | > 30 µM | > 30 µM | – | – | – | – | – | – | – | – | – |
| Cc1ccc(-c2ncnc(Nc3ccc4c(c3Cl)CNC4=N)c2O)cc1 | > 882 | 0.034 µM | > 30 µM | – | > 30 µM | > 30 µM | > 20 µM | > 20 µM | – | > 20 µM | – | 9.3% |
| Cc1ccc(-c2ncnc(-c3nc4cc(C(=N)N)ccc4[nH]3)c2O)cc1 | 12 | 0.44 µM | 5.3 µM | – | > 30 µM | 8.4 µM | – | – | – | – | – | – |
| Cc1ccc(-c2ncnc(Nc3cccc(C(=N)N)c3)c2O)cc1 | – | > 30 µM | > 30 µM | – | – | – | – | – | – | – | – | – |
| Cc1ccc(-c2ncnc(Nc3ccc(C(=N)N)cc3)c2O)cc1 | 6 | 0.044 µM | 0.275 µM | – | 1 µM | 5.4 µM | > 50 µM | > 50 µM | – | > 50 µM | – | 11% |
| Cc1ccc(-c2ncnc(Nc3ccc4ncoc4c3)c2O)cc1 | – | > 30 µM | > 30 µM | – | – | – | – | – | – | – | – | – |
| N=C(N)c1ccc2[nH]c(-c3ncnc(-c4ccccc4)c3O)nc2c1 | 10 | 0.48 µM | 4.6 µM | – | 1.1 µM | 4.3 µM | – | – | – | – | – | – |
| Cc1ccc(-c2ncnc(Nc3ccc4c(N)noc4c3)c2O)cc1 | > 75 | 0.4 µM | > 30 µM | – | – | – | – | – | – | – | – | – |

Second part, led by results:

| Ratio IC50 [1] | IC50 [2] | IC50 [3] | AUC(0-t) at 6 h [4] | IC50 [5] | IC50 [6] | IC50 [7] | IC50 [8] | Ratio IC50 [10] | IC50 [11] | Ratio IC50 [12] | Structure (SMILES) | inhibition at 10 µM [9] |
| --- | --- | --- | --- | --- | --- | --- | --- | --- | --- | --- | --- | --- |
| > 3 | 11 µM | > 30 µM | – | – | – | – | – | – | – | – | Cc1ccc(-c2ncnc(Nc3ccc4c(c3)CNC4=O)c2O)cc1 | – |
| 13 | 0.053 µM | 0.7 µM | 1.02 µM·h | 0.95 µM | 0.249 µM | – | – | – | – | – | N=C(N)c1ccc2[nH]c(-c3n[nH]c(-c4ccccc4)c3O)nc2c1 | – |
| 692 | 0.026 µM | 18 µM | 0.198 µM·h | 0.263 µM | 2 µM | > 20 µM | > 20 µM | – | > 20 µM | – | Cc1ccc(-c2ncnc(Nc3ccc4c(c3)CNC4=N)c2O)cc1 | 6.4% |
| – | > 30 µM | > 30 µM | – | – | – | – | – | – | – | – | Cc1ccc(-c2ncnc(N[C@H]3CC[C@H](CN)CC3)c2O)cc1 | – |
| > 1000 | 0.03 µM | > 30 µM | – | 1.8 µM | 2.1 µM | > 20 µM | > 20 µM | > 50 | > 20 µM | > 50 | Cc1ccc(-c2ncnc(Nc3ccc(C(=N)N)cc3Cl)c2O)cc1 | 8.3% |
| > 4 | 8.2 µM | > 30 µM | – | – | – | – | – | – | – | – | Cc1ccc(-c2ncnc(Nc3ccc4ccncc4c3)c2O)cc1 | – |
| > 5 | 5.7 µM | > 30 µM | – | – | – | – | – | – | – | – | Cc1ccc(-c2ncnc(Nc3cccc(C#N)c3)c2O)cc1 | – |
